Key:
[1] = tested on: MGC-803; assay: Cytotoxicity against human MGC803 cells after 72 hrs by MTT assay; format: functional, cell-based; settings: MGC-803, 72 h
[2] = tested on: HL-60; assay: Cytotoxicity against human HL60 cells after 72 hrs by MTT assay; format: functional, cell-based; settings: HL-60, 72 h
[3] = Cytotoxicity against human 95-D cells after 72 hrs by MTT assay; format: functional, cell-based
[4] = tested on: HCT-116; assay: Cytotoxicity against human HCT116 cells after 72 hrs by MTT assay; format: functional, cell-based; settings: HCT-116, 72 h
[5] = Selectivity ratio of IC50 for PGPH-like activity of 20S proteasome in human HL60 cells to IC50 for chymotrypsin-like activity of 20S proteasome in human HL60 cells
[6] = target: T1, Proteasome Macropain subunit MB1 (Homo sapiens, UniProt P28074); assay: Inhibition of chymotrypsin-like activity of 20S proteasome in human HL60 cells using Suc-LLVYaminoluciferin as substrate pretreated for 2 hrs followed by substrate addition by […]; format: cell-based
T1 sequence (P28074 whole entry): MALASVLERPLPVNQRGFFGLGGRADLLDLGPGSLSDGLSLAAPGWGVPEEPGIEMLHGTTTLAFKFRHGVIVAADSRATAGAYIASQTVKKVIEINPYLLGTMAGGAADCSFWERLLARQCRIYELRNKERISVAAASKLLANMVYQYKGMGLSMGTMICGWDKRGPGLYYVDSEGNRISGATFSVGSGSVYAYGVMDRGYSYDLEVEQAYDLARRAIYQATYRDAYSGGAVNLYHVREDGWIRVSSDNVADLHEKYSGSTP

[7] = Selectivity ratio of IC50 for trypsin-like activity of 20S proteasome in human HL60 cells to IC50 for chymotrypsin-like activity of 20S proteasome in human HL60 cells
[8] = tested on: MDA-MB-231; assay: Cytotoxicity against human MDA-MB-231 cells after 72 hrs by MTT assay; format: functional, cell-based; settings: MDA-MB-231, 72 h
[9] = tested on: A549; assay: Cytotoxicity against human A549 cells after 72 hrs by MTT assay; format: functional, cell-based; settings: A549, 72 h

Row | Compound | IC50 [1] [nM] | further results
1 | O=C(N[C@@H](Cc1ccccc1)C(=O)N1CCC[C@H]1B(O)O)[C@H](Cc1ccccc1)NC(=O)N1CCc2ccccc2C1 | 4170 | –
2 | CC(C)C[C@H](NC(=O)c1cnccn1)C(=O)N[C@@H](CC(C)C)C(=O)N1CCC[C@H]1B(O)O | 4430 | –
3 | O=C(N[C@@H](Cc1ccccc1)C(=O)N1CCC[C@H]1B(O)O)N1CCOCC1 | > 10000 | –
4 | O=C(N[C@@H](Cc1ccccc1)C(=O)N1CCC[C@H]1B(O)O)N1CCc2ccccc2C1 | > 10000 | –
5 | O=C(N[C@@H](Cc1ccccc1)C(=O)N[C@@H](Cc1ccc2ccccc2c1)C(=O)N1CCC[C@H]1B(O)O)c1cnccn1 | 110 | –
6 | CC(C)C[C@H](NC(=O)N(C)Cc1ccccc1)C(=O)N[C@@H](Cc1ccc2ccccc2c1)C(=O)N1CCC[C@H]1B(O)O | 1650 | –
7 | O=C(N[C@@H](Cc1ccc2ccccc2c1)C(=O)N1CCC[C@H]1B(O)O)OCc1ccccc1 | > 10000 | –
8 | O=C(N[C@@H](Cc1ccccc1)C(=O)N1CCC[C@H]1B(O)O)c1cnccn1 | > 10000 | –
9 | CC(C)C[C@H](NC(=O)[C@H](Cc1ccccc1)NC(=O)c1cnccn1)B(O)O [BORTEZOMIB] | 8 to 13.3 | IC50 [2]: 8 nM; IC50 [3]: 38 nM; IC50 [4]: 1 nM
10 | CC(C)C[C@H](NC(=O)c1cnccn1)C(=O)N[C@@H](Cc1ccc2ccccc2c1)C(=O)N1CCC[C@H]1B(O)O | 29.6 | –
11 | CC(C)C[C@H](NC(=O)OCc1ccccc1)C(=O)N[C@@H](Cc1ccc2ccccc2c1)C(=O)N1CCC[C@H]1B(O)O | 9.76 to 10 | Ratio IC50 [5]: 69.4; IC50 [6]: 18 nM; IC50 [2]: < 1 nM; IC50 [3]: 12 nM; IC50 [4]: 69 nM; Ratio IC50 [7]: 92.2; IC50 [8]: 7 nM; IC50 [9]: 5990 nM
12 | O=C(N[C@@H](Cc1ccc2ccccc2c1)C(=O)N1CCC[C@H]1B(O)O)N1CCc2ccccc2C1 | 5360 | –
13 | O=C(N[C@@H](Cc1ccccc1)C(=O)N[C@@H](Cc1ccc2ccccc2c1)C(=O)N1CCC[C@H]1B(O)O)OCc1ccccc1 | 150 | –
14 | CC(C)C[C@H](NC(=O)c1cnccn1)C(=O)N[C@@H](Cc1ccccc1)C(=O)N1CCC[C@H]1B(O)O | 27.2 | –
15 | CC(C)C[C@H](NC(=O)[C@H](Cc1ccccc1)NC(=O)N1CCc2ccccc2C1)C(=O)N1CCC[C@H]1B(O)O | > 10000 | –
16 | CN(Cc1ccccc1)C(=O)N[C@@H](Cc1ccc2ccccc2c1)C(=O)N1CCC[C@H]1B(O)O | 7480 | –
17 | O=C(N[C@@H](Cc1ccc(O)cc1)C(=O)N1CCC[C@H]1B(O)O)[C@H](Cc1ccccc1)NC(=O)N1CCc2ccccc2C1 | 7640 | –
18 | CC(C)C[C@H](NC(=O)N1CCc2ccccc2C1)C(=O)N[C@@H](Cc1ccc2ccccc2c1)C(=O)N1CCC[C@H]1B(O)O | 1430 | –
19 | O=C(N[C@@H](Cc1ccc2ccccc2c1)C(=O)N1CCC[C@H]1B(O)O)[C@H](Cc1ccccc1)NC(=O)N1CCc2ccccc2C1 | 2420 | –
20 | O=C(N[C@@H](Cc1ccccc1)C(=O)N[C@@H](Cc1ccccc1)C(=O)N1CCC[C@H]1B(O)O)c1cnccn1 | 478 | –
21 | CC(C)C[C@H](NC(=O)OCc1ccccc1)C(=O)N[C@@H](CC(C)C)C(=O)N1CCC[C@H]1B(O)O | 10.9 | –

— ChEMBL document CHEMBL4052692, “Synthesis and biological activity of peptide proline-boronic acids as proteasome inhibitors” (Bioorg Med Chem, 2017)
